The results in this text go back to patent US20240101548A1, “HYDROXAMATE COMPOUND, PREPARATION METHOD THEREFOR AND APPLICATION THEREOF” (SHENZHEN CHIPSCREEN BIOSCIENCES CO., LTD., priority 2020, published 2024).

Read-outs that look alike come from different tables or passages of the source.

In test [1] the test system is INF-α-induced pSTAT5 in human PBMC. As to the kind of experiment: INF-α-induced pSTAT5 in human PBMC (FACS, CD3 positive cells). As to conditions: Homo sapiens, PBMC, IFN-α 30 ng/ml, read-out: Inhibition activity IC50 on INF-α-induced pSTAT5 in human PBMC. It counts as cell-based. As to the method: hPBMC (available from Shanghai AoNeng Biotechnology Co., Ltd.) was inoculated in 96-well plate, added with compound of the present invention (at concentrations of 40 nM and 200 nM), incubated for 60 min (compound in concentrations of 2 nM, 10 nM respectively during the incubation); added with 30 ng/ml of stimulating factor IFN-α (BioLegend) together with anti-CD3 antibody (Biolegend) and then continued to be incubated for 30 min. After the incubation, each well was added with 1 mL of fixing solution (BD Biosciences), the obtained mixture was incubated for 10 min followed by centrifugation, added with 400 μL/well of Perm III (BD Biosciences), followed by further incubation at 4° C. for 30 min. The obtained mixture was added with mouse anti-human pSTAT5 antibody (Alexa Fluor® 647 Conjugate), followed by incubation at room temperature for 40 min. Fluorescence intensity of pSTAT5 in CD3 positive cells was detected by FACS.
Inhibition rate at individual compound concentration was calculated with the following formula:
Inhibition rate=(MFI value(IFN-α-stimulated control)−MI value(2/10 nM compound treated group)/MFI value(IFN-α-stimulated control)[…]
wherein: MFI value meant fluorescence intensity value; IFN-α-stimulated control meant control group which was operated similarly to the experimental groups but no compound of the present invention was added.

Test [2] has as its system IL-2-induced JAK1/JAK3 signal pathway. As to the kind of experiment: IL-2-induced proliferation of KHYG-1 cells (JAK1/JAK3 signal). The test is classed as cell-based, human. The note with it: Homo sapiens; KHYG-1 cell proliferation, IL-2 10 ng/mL, 72 hours; read-out: Inhibition activity IC50 on IL-2-induced JAK1/JAK3 signal pathway. A digest of the protocol: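 KHYG-1 NK lymphoma cells were cultured with IL-2 and test compound at various doses for 72 h at 37 °C and 5% CO2, and proliferation was read with alamarBlue fluorescence. Inhibition was normalized to wells without compound or cytokine (0%) and IL-2 wells without compound (100%), and C50 was derived from the dose-inhibition data.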

Test [3] deals with IL-10-induced JAK1/TYK2 signal pathway. As to the kind of experiment: IL-10-induced JAK1/TYK2 signal pathway STAT3-Luc reporter gene assay in U2OS cells. The test is classed as cell-based, human. As to conditions: Homo sapiens, U2OS cells, STAT3-Luc reporter, IL-10 10 ng/mL, read-out: Half inhibition dose (IC50) on IL-10-induced JAK1/TYK2 signal pathway. The essentials: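 U2OS cells co-transfected with IL-10R1-EGFP and STAT3-luciferase reporter plasmids; after 24 h, compound added (0–300 nM) for 6 h before 10 ng/mL human IL-10, then 24 h culture. Luciferase signal normalised to GFP for transfection efficiency; IC50 from inhibition rates.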

Test [4] has as its system EPO-induced JAK2 signal pathway. As to the kind of experiment: EPO-induced proliferation of UT-7 cells (JAK2 signal). It counts as cell-based, human. As to conditions: Homo sapiens, UT7; UT-7 cell proliferation, EPO 10 ng/mL, 72 hours; read-out: Inhibition activity IC50 on EPO-induced JAK2 signal pathway. A digest of the protocol:
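UT-7 cells (15000/well) stimulated with 10 ng/mL human recombinant EPO plus compound at final 0, 100, 1000 or 10000 nM, 72 h at 37° C., 5% CO2. Proliferation by alamarBlue fluorescence (Ex530/Em590); inhibition normalised to no-cytokine/no-compound (0) and EPO-only (100) wells, […] derived from dose-inhibition.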

Regarding `CCONC(=O)c1cnc(Nc2cc(C)nc(C)n2)cc1Nc1cc(F)cc(-c2ncc(F)cn2)c1OC` [Example 211], the IC50 in test [1] was less than 2 nM; in test [2] it was more than 10000 nM; in test [3] (U2OS) it was 1.98 nM; in test [4], more than 10000 nM.
Regarding `CCONC(=O)c1cnc(NC(=O)C2CC2)cc1Nc1cc(F)cc(-c2ncn(C3CC3)n2)c1OC` [Example 205], the IC50 was less than 2 nM in test [1], more than 10000 nM in test [2], 1.79 nM in test [3] (U2OS) and more than 10000 nM in test [4].
In the case of `CCONC(=O)c1cnc(Nc2cc(C)nc(C)n2)cc1Nc1cc(F)cc(-c2ncc(C)cn2)c1OC` [Example 225, 6-((2,6-dimethylpyrimidin-4-yl)amino)-N-ethoxy-4-((5-fluoro-2-methoxy-3-(5-methylpyrimidin-2-yl)phenyl)amino)nicotinamide], the IC50 in test [1] is less than 2 nM; in test [2], more than 10000 nM; in test [3] (U2OS), 0.36 nM; in test [4], more than 10000 nM.
For `CCONC(=O)c1cnc(Nc2cc(C)nc(C)n2)cc1Nc1cccc(-c2cnccn2)c1OC` [Example 248, 6-((2,6-dimethylpyrimidin-4-yl)amino)-N-ethoxy-4-((2-methoxy-3-(pyrazin-2-yl)phenyl)amino)nicotinamide], the IC50 in test [1] was less than 2 nM; in test [2], more than 10000 nM; in test [3], 1.04 nM; in test [4] it was more than 10000 nM.
